Experimental data from ChEMBL document CHEMBL4507299, “Data for DCP probe PF-04554878” (2021).

Columns and labels:
[1] = system: Tyrosine-protein kinase ABL1 (Homo sapiens), P00519 [F317I]
[2] = biological target: Tyrosine-protein kinase ABL1 (Homo sapiens, UniProt P00519)
[3] = biological target: Ankyrin repeat and protein kinase domain-containing protein 1 (Homo sapiens) (UniProt Q8NFD2)
[4] = biological target: Tyrosine-protein kinase receptor UFO (Homo sapiens) (UniProt P30530)
[5] = biological target: Tyrosine-protein kinase Blk (Homo sapiens) (UniProt P51451)
[6] = biological target: Serine/threonine-protein kinase B-raf (Homo sapiens) (UniProt P15056)
[7] = system: Serine/threonine-protein kinase B-raf (Homo sapiens), P15056 [V600E]
[8] = biological target: Cyclin-dependent kinase 13 (Homo sapiens) (UniProt Q14004)
[9] = biological target: Cyclin-dependent kinase 4 (Homo sapiens) (UniProt P11802)
[10] = biological target: Cyclin-dependent kinase-like 3 (Homo sapiens) (UniProt Q8IVW4)
[11] = biological target: Dual specificity protein kinase CLK3 (Homo sapiens) (UniProt P49761)
[12] = biological target: Death-associated protein kinase 3 (Homo sapiens) (UniProt O43293)
[13] = biological target: Myotonin-protein kinase (Homo sapiens) (UniProt Q09013)
[14] = biological target: Serine/threonine-protein kinase MRCK gamma (Homo sapiens) (UniProt Q6DT37)
[15] = system: Epidermal growth factor receptor (Homo sapiens), P00533 [L858R]
[16] = system: Epidermal growth factor receptor (Homo sapiens), P00533 [L861Q]
[17] = biological target: Receptor tyrosine-protein kinase erbB-2 (Homo sapiens) (UniProt P04626)
[18] = biological target: Fibroblast growth factor receptor 1 (Homo sapiens) (UniProt P11362)
[19] = biological target: Receptor-type tyrosine-protein kinase FLT3 (Homo sapiens) (UniProt P36888)
[20] = biological target: Glycogen synthase kinase-3 beta (Homo sapiens, UniProt P49841)
[21] = biological target: Serine/threonine-protein kinase LATS2 (Homo sapiens) (UniProt Q9NRM7)
[22] = biological target: LIM domain kinase 2 (Homo sapiens) (UniProt P53671)
[23] = biological target: Serine/threonine-protein kinase 10 (Homo sapiens) (UniProt O94804)
[24] = biological target: Mitogen-activated protein kinase kinase kinase 4 (Homo sapiens) (UniProt Q9Y6R4)
[25] = system: Hepatocyte growth factor receptor (Homo sapiens), P08581 [M1250T]
[26] = biological target: MAP kinase-interacting serine/threonine-protein kinase 2 (Homo sapiens) (UniProt Q9HBH9)
[27] = biological target: Serine/threonine-protein kinase MRCK beta (Homo sapiens) (UniProt Q9Y5S2)
[28] = biological target: Serine/threonine-protein kinase 4 (Homo sapiens) (UniProt Q13043)
[29] = biological target: Mitogen-activated protein kinase kinase kinase 14 (Homo sapiens) (UniProt Q99558)
[30] = biological target: Serine/threonine-protein kinase NIM1 (Homo sapiens) (UniProt Q8IY84)
[31] = biological target: Mitogen-activated protein kinase 14 (Homo sapiens) (UniProt Q16539)
[32] = system: Phosphatidylinositol 4,5-bisphosphate 3-kinase catalytic subunit alpha isoform (Homo sapiens), P42336 [M1043I]
[33] = biological target: Phosphatidylinositol 4-phosphate 5-kinase type-1 gamma (Homo sapiens) (UniProt O60331)
[34] = biological target: Phosphatidylinositol 5-phosphate 4-kinase type-2 beta (Homo sapiens) (UniProt P78356)
[35] = biological target: Rho-associated protein kinase 1 (Homo sapiens) (UniProt Q13464)
[36] = biological target: Ribosomal protein S6 kinase alpha-1 (Homo sapiens) (UniProt Q15418)
[37] = biological target: Ribosomal protein S6 kinase alpha-2 (Homo sapiens) (UniProt Q15349)
[38] = biological target: Ribosomal protein S6 kinase alpha-2 (Homo sapiens) (UniProt Q15349); remark: listed apart in the source
[39] = biological target: Serine/threonine-protein kinase SBK1 (Homo sapiens) (UniProt Q52WX2)
[40] = biological target: Serine/threonine-protein kinase SIK1 (Homo sapiens) (UniProt P57059)
[41] = biological target: SRSF protein kinase 3 (Homo sapiens) (UniProt Q9UPE1)
[42] = biological target: Serine/threonine-protein kinase TAO1 (Homo sapiens) (UniProt Q7L7X3)
[43] = biological target: Transient receptor potential cation channel subfamily M member 6 (Homo sapiens) (UniProt Q9BX84)
[44] = biological target: Tyrosine-protein kinase Yes (Homo sapiens) (UniProt P07947)
[45] = biological target: Sigma intracellular receptor 2 (Homo sapiens, UniProt Q5BJF2); settings: Compound concentration 10.0 uM
[46] = Compound concentration 100.0 nM
[47] = Compound concentration 1000.0 nM

Sequence of Ribosomal protein S6 kinase alpha-2 (Homo sapiens) (Q15349 whole entry): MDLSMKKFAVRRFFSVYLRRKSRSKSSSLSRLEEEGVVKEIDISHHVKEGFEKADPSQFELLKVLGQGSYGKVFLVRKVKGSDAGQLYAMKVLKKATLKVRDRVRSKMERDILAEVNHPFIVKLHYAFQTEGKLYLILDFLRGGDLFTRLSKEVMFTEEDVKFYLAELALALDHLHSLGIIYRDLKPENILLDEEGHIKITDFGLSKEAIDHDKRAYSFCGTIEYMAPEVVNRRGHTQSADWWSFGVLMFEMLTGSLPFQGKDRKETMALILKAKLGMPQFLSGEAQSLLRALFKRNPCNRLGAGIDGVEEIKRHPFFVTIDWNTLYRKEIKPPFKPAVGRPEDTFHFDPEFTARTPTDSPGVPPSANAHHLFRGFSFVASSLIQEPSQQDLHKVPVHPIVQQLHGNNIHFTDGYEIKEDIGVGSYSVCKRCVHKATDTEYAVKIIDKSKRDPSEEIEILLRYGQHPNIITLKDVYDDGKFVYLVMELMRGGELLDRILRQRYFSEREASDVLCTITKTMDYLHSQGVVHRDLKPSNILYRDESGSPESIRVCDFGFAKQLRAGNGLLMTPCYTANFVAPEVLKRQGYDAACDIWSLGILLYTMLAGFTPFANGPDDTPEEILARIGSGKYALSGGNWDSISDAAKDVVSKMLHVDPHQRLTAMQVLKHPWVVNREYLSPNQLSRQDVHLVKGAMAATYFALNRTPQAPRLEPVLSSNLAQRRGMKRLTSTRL
Sequence of Sigma intracellular receptor 2 (Q5BJF2 whole entry): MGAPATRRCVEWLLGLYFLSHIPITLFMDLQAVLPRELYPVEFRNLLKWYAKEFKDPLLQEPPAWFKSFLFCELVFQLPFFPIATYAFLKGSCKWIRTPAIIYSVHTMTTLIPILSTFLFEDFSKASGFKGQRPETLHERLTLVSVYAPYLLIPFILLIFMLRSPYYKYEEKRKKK
Sequence of Serine/threonine-protein kinase TAO1 (Homo sapiens) (Q7L7X3 whole entry): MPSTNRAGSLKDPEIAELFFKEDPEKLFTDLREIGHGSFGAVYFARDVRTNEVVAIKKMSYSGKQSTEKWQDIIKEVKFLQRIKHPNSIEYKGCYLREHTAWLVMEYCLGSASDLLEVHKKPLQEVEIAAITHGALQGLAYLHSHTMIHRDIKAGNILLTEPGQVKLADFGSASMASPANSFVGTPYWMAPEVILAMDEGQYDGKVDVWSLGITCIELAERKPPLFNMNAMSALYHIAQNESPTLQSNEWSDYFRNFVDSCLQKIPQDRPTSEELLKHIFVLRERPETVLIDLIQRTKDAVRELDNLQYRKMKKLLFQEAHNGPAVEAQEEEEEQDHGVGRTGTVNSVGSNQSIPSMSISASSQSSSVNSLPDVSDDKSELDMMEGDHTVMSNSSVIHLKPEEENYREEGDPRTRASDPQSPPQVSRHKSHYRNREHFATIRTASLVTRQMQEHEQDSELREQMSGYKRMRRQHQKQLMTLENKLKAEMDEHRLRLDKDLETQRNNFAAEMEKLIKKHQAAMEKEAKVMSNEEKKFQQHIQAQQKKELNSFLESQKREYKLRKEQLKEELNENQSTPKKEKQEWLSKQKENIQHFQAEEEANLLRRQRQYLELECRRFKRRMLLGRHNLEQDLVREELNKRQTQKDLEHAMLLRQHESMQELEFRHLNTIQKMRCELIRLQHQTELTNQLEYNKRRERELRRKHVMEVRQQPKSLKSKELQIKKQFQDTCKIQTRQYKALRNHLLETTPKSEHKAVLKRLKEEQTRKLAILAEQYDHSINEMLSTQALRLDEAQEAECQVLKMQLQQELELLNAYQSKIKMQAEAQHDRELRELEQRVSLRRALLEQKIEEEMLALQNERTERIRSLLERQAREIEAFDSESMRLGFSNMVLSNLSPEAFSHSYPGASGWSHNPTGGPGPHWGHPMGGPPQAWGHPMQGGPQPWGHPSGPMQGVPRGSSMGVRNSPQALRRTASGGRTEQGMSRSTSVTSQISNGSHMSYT
Sequence of SRSF protein kinase 3 (Homo sapiens) (Q9UPE1 whole entry): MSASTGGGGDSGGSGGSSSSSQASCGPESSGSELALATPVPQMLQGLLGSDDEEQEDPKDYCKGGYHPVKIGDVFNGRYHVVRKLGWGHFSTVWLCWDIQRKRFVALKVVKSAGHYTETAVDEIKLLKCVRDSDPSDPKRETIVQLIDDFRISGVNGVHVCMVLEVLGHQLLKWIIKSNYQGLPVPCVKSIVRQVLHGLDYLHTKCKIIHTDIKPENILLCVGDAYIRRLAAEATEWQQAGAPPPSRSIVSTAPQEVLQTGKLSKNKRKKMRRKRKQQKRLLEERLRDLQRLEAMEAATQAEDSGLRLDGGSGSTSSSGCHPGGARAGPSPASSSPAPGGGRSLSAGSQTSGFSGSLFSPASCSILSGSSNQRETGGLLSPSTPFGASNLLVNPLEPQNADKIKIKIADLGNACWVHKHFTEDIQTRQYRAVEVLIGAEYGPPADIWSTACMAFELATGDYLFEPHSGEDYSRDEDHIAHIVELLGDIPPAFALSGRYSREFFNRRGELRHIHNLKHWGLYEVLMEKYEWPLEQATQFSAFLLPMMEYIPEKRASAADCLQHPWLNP
Sequence of Cyclin-dependent kinase-like 3 (Homo sapiens) (Q8IVW4 whole entry, looked up): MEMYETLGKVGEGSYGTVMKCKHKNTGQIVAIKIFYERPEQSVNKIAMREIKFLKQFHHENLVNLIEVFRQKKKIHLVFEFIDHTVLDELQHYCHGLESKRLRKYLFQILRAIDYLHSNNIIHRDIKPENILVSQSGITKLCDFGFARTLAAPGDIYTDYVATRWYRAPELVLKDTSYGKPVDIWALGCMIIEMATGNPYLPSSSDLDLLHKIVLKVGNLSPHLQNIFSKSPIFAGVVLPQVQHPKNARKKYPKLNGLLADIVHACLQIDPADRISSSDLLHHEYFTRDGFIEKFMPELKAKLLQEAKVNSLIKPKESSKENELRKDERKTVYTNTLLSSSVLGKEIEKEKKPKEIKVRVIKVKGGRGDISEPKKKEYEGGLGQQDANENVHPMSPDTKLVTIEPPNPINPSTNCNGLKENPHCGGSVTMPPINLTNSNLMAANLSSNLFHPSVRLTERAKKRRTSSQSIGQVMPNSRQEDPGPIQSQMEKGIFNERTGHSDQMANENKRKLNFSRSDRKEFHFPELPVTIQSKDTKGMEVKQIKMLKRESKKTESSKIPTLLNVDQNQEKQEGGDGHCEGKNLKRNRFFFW
Sequence of Cyclin-dependent kinase 4 (Homo sapiens) (P11802 whole entry): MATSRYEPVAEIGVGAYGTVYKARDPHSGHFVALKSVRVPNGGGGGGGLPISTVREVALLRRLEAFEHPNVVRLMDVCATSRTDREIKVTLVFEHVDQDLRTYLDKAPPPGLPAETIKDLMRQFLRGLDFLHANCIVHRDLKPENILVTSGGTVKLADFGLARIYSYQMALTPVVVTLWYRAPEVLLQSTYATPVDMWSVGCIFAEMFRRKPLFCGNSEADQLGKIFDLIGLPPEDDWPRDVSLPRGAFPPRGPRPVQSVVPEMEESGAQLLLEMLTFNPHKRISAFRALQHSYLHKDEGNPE
Sequence of Tyrosine-protein kinase receptor UFO (Homo sapiens) (P30530 whole entry): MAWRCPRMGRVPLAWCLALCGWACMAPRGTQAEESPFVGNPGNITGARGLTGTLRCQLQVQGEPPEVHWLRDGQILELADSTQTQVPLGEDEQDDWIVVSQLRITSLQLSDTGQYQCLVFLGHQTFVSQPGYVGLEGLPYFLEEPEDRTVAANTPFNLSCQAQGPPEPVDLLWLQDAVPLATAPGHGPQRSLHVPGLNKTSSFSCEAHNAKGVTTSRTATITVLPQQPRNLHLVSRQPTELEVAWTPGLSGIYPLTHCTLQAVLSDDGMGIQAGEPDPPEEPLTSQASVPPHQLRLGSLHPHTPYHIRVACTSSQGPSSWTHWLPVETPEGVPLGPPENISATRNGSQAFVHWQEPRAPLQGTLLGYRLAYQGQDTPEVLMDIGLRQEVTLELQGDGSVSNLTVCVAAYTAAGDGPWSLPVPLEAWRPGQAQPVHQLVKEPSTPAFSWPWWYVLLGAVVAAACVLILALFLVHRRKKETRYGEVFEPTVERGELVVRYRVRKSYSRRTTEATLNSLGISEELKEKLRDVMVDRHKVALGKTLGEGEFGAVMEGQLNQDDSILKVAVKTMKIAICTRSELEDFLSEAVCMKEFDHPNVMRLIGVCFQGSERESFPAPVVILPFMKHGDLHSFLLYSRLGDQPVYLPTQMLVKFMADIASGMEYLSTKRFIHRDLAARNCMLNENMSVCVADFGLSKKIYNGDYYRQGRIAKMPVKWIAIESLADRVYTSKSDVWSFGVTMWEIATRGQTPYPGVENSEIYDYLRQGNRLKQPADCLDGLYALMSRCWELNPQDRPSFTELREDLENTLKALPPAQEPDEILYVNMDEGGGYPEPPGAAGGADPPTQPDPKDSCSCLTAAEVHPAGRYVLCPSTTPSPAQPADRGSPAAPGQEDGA
Sequence of Phosphatidylinositol 4-phosphate 5-kinase type-1 gamma (Homo sapiens) (O60331 whole entry): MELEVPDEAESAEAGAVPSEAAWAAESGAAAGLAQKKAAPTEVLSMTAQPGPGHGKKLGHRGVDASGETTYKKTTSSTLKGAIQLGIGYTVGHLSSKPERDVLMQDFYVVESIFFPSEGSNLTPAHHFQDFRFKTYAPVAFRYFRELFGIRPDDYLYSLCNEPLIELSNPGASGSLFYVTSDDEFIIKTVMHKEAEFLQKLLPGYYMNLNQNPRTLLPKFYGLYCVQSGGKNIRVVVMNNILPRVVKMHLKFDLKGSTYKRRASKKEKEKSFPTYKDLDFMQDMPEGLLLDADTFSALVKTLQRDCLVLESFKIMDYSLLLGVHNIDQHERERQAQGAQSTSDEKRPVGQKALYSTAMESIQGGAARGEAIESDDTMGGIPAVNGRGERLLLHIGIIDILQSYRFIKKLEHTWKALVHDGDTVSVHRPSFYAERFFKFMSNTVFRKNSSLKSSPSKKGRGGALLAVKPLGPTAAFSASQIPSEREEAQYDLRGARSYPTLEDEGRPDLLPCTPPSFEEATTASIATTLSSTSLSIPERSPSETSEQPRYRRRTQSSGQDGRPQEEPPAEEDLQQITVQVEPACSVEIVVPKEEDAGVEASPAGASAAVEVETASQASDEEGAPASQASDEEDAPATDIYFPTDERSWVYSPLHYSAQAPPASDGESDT

CNC(=O)c1ccc(Nc2ncc(C(F)(F)F)c(NCc3nccnc3N(C)S(C)(=O)=O)n2)cc1 [DEFACTINIB]
residual activity [1, 46]: 100% | residual activity [2, 46]: 88% | residual activity [3, 46]: 88% | residual activity [4, 46]: 51% | residual activity [5, 46]: 78% | residual activity [6, 46]: 100% | residual activity [7, 46]: 100% | residual activity [8, 46]: 94% | residual activity [9, 46]: 100% | residual activity [10, 46]: 92% | residual activity [11, 46]: 97% | residual activity [12, 46]: 75% | residual activity [13, 46]: 16% | residual activity [14, 46]: 80% | residual activity [15, 46]: 100% | residual activity [16, 46]: 100% | residual activity [17, 46]: 100% | residual activity [18, 46]: 89% | residual activity [19, 46]: 74% | residual activity [20, 46]: 87% | residual activity [21, 46]: 65% | residual activity [22, 46]: 87% | residual activity [23, 46]: 77% | residual activity [24, 46]: 100% | residual activity [25, 46]: 63% | residual activity [26, 46]: 100% | residual activity [27, 46]: 90% | residual activity [28, 46]: 97% | residual activity [29, 46]: 92% | residual activity [30, 46]: 100% | residual activity [31, 46]: 100% | residual activity [32, 46]: 100% | residual activity [33, 46]: 100% | residual activity [34, 46]: 91% | residual activity [35, 46]: 100% | residual activity [36, 46]: 100% | residual activity [37, 46]: 77% | residual activity [38, 46]: 61% | residual activity [39, 46]: 67% | residual activity [40, 46]: 90% | residual activity [41, 46]: 100% | residual activity [42, 46]: 50% | residual activity [43, 46]: 98% | residual activity [44, 46]: 100% | inhibition [45]: 48.1%

CN(c1ccnc(CNc2nc(Nc3ccc4c(c3)CC(=O)N4)ncc2C(F)(F)F)n1)S(C)(=O)=O [PF-00911705]
residual activity [1, 47]: 100% | residual activity [2, 47]: 77% | residual activity [3, 47]: 84% | residual activity [4, 47]: 21% | residual activity [5, 47]: 40% | residual activity [6, 47]: 82% | residual activity [7, 47]: 68% | residual activity [8, 47]: 82% | residual activity [9, 47]: 63% | residual activity [10, 47]: 78% | residual activity [11, 47]: 12% | residual activity [12, 47]: 33% | residual activity [13, 47]: 23% | residual activity [14, 47]: 93% | residual activity [15, 47]: 73% | residual activity [16, 47]: 70% | residual activity [17, 47]: 100% | residual activity [18, 47]: 82% | residual activity [19, 47]: 64% | residual activity [20, 47]: 57% | residual activity [21, 47]: 42% | residual activity [22, 47]: 94% | residual activity [23, 47]: 100% | residual activity [24, 47]: 91% | residual activity [25, 47]: 6.8% | residual activity [26, 47]: 91% | residual activity [27, 47]: 100% | residual activity [28, 47]: 100% | residual activity [29, 47]: 65% | residual activity [30, 47]: 9.5% | residual activity [31, 47]: 92% | residual activity [32, 47]: 95% | residual activity [33, 47]: 91% | residual activity [34, 47]: 4.8% | residual activity [35, 47]: 49% | residual activity [36, 47]: 100% | residual activity [37, 47]: 57% | residual activity [38, 47]: 95% | residual activity [39, 47]: 34% | residual activity [40, 47]: 76% | residual activity [41, 47]: 11% | residual activity [42, 47]: 3.7% | residual activity [43, 47]: 86% | residual activity [44, 47]: 77% | inhibition [45]: 60.3%
